In test [1] the target is T1, G6sec2 (Homo sapiens, UniProt Q9BYG0).
T1 construct: made in house; host or cells: Sf21 insect cells infected with pVL1393-F2G6sec2-derived recombinant baculovirus
T1 sequence (Q9BYG0 39-378): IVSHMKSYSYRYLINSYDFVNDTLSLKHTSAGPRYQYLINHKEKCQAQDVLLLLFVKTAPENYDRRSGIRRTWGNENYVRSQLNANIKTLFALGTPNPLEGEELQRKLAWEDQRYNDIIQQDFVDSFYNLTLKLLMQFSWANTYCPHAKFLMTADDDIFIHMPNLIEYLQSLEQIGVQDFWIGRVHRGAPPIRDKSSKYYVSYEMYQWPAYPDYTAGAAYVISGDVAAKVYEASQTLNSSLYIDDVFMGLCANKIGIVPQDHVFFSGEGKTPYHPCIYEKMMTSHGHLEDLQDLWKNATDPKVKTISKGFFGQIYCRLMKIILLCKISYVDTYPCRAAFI
Kind of test: β1,3-N-acetylglucosaminyltransferase activity using pyridylaminated oligosaccharides as substrates. The class given is biochemical. Particulars: 37° C., 14.5 hours. Here is the method:
After carrying out the reaction at 37° C. for 14.5 hours in 30 μl of an assay solution [150 mmol/l sodium cacodylate (pH 7.2), 50 mmol/l UDP-GlcNAc (manufactured by SIGMA), 0.4% Triton CF-54, 10 mmol/l MnCl2, 50 μmol/l pyridylaminated sugar chain substrate, a purified enzyme solution (G6sec2)], the product was detected by HPLC. The purified enzyme (G6sec2) was obtained according to the method shown in Example 8(6). The purified enzyme (280 μl) was prepared from 30 ml of a culture supernatant of Sf21 infected with the recombinant virus derived from pVL1393-F2G6sec2, and the assay was carried out using 5 μl thereof. As substrates, LnNT, lacto-N-tetraose (Galβ1-3GlcNAcβ1-3Galβ1-4Glc (hereinafter referred to as “LNT”), lacto-N-fucopentaose II (Galβ1-3(Fucα1-4)GlcNAcβ1-3Galβ1-4Glc; hereinafter referred to as “LNFP-II”), lacto-N-fucopentaose III (Galβ1-4(Fucα1-3)GlcNAcβ1-3Galβ1-4Glc; hereinafter referred to as “LNFP-III”), lacto-N-fucopentaose V (Galβ1-3GlcNAcβ1-3Galβ1-4(Fucα1-3)Glc; hereinafter referred to as “LNFP-V”), and lacto-N-difucohexaose II (Galβ1-3(Fucα1-4)GlcNAcβ1-3Galβ1-4(Fucα1-3)Glc; hereinafter referred to as “LNDFH-II”) (all manufactured by Oxford Glycosystems) were fluorescently-labeled with aminopyridine and used. The substrates were fluorescently-labeled according to a conventional method [Agric. Biol. Chem., 54, 2169 (1990)].
After carrying out the reaction on each substrate using an assay solution containing UDP-GlcNAc (saccharide donor) and an assay solution containing no donor and subsequently analyzing by HPLC, peaks appeared only in the assay solution containing UDP-GlcNAc was defined as products.
The assay solution after completion of the reaction was treated at 100° C. for 5 minutes and then centrifuged at 10,000×g for 5 minutes to obtain a supernatant, and a part thereof (5 μl) was subjected to HPLC.
The HPLC was carried out using TSK-gel ODS-80Ts Column (4.6×300 mm; manufactured by TOSOH) and 0.02 mol/l ammonium acetate buffer (pH 4.0) as the eluant at an elution temperature of 50° C. and a flow rate of 0.5 ml/min.
Detection and determination of products were carried out using a fluorescence spectrophotometer FP-920 (manufactured by JASCO Corporation) (excitation wavelength: 320 nm, radiation wavelength: 400 nm).

Test [2] deals with T1, G6sec2. The test can be described thus: β1,3-N-acetylglucosaminyltransferase activity of purified FLAG peptide-fused G6 polypeptide, 2-aminobenzamide-labeled oligosaccharide substrates. The test is classed as biochemical. The note with it: second enzyme-adsorbed ANTI-FLAG M1 AFFINITY GEL (printed G6sec1-adsorbed gel) used as enzyme.

As to `CC(=O)N[C@H]1[C@H](O[C@H]2[C@@H](O)[C@@H](CO)O[C@@H](O[C@H]3[C@H](O)[C@@H](O)C(O)O[C@@H]3CO)[C@@H]2O)O[C@H](CO)[C@@H](O[C@@H]2O[C@H](CO)[C@H](O)[C@H](O)[C@H]2O)[C@@H]1O` (mixture of isomers) [LNnT, lacto-N-neotetraose], the “Relative activity (%)” value at G6sec2 [1] (pyridylaminated oligosaccharides 50 μmol/l, LNnT defined as 100%) is given as 100%. On G6sec2 [1] (pyridylaminated substrate 50 μmol/l), the “conversion efficiency of the substrate into the product” value turned out to be 12.8%. Moreover, on G6sec2 [2], the “conversion efficiency of the substrate” value is reported as 20.2%.
